# Results: PMC11394972 (International Journal of Molecular Sciences, 2024)
# Test system: MazF-mt3(Δ16–22)
# Assay type: biochemical, Mycobacterium tuberculosis
# Conditions: FAM-labeled 13-nt RNA substrate; Figure 4B, Figure S9
substance,measurement,value
"MazE-mt3 α3–α4: peptide corresponding to the last two helices (α3-α4, Leu46-Trp82) of MazE-mt3; cocrystallized with MazF-mt3 (PDB 8ZWS) (LTGQIDRALESIHGTDEAEALAVANAYRVLETMDDEW)",inhibitory effect against the loop-truncated MazF-mt3 enzyme compared with the full-length antitoxin,strong inhibitory effect comparable to that of the full-length MazE-mt3
